Values after ≈ are worked out from the molar mass of the structure shown.
Columns and labels:
[1] = system: γ-secretase; assay: Amyloid protein determination by ELISA in cells with introduced APP artificial fragment C100 instead of APP695; assay type: cell-based, simian; details: Inhibitor 100 μM; for Inhibition rate (%) Aβ40 / Inhibition rate (%) Aβ42(43): 100 µM
[2] = system: γ-secretase; assay: Amyloid protein determination by ELISA in culture supernatant of COS cells with introduced London-type (Val717Ile) APP695 gene; assay type: cell-based, simian; details: for Inhibition rate (%) Total Aβ: 100 µM
Text: (§1) The human APP695 gene used in this example (whose nucleotide sequence in its coding region is shown as SEQ ID NO:6) was what had been screened from a cDNA library prepared from the dead brain of a normal human by a conventional method, and its entire nucleotide sequence was confirmed by a conventional method. Briefly, about 1 g of frozen cerebral tissue was phenol-treated and the supernatant aqueous solution was collected. After repeating this process, mRNA was precipitated by addition of ethanol. After dissolving in 20 mM tris-HCl, pH 8., 0.1 mM EDTA, cDNA was synthesized with reverse transcriptase using oligo-dT primers and the mRNA as a template. After remaining RNA was digested with RNase, using thus obtained single-stranded cDNA as a template, double-stranded cDNA was synthesized with DNA polymerase. The double-stranded cDNA was then blunt-ended with T4 DNA polymerase. Following introduction of methylation into a EcoR1 restriction site using EcoR1 methylase, an EcoR1 linker adapter was ligated using ligase. After removal of unreacted free adapter by gel filtration, ligation to λgt11 vector was effected using DNA ligase, and thus ligated product was incorporated into λ-phage using a packaging kit. E. coli cells in agar plates were infected with the λ-phage thus obtained, and the solution containing thus proliferated phage was used as cDNA library. For APP cDNA cloning, oligonucleotides that were anticipated based on the amyloid protein were radio-labeled using γ^32P-ATP and DNA kinase to provide the labeled nucleotides as probes. 10^6 pfu (plaque forming units) of phage were allowed to form plaques on agar plates, and brought into contact with a nylon membrane. The phage DNAs that stuck to the membrane were denaturated to single-stranded DNAs by alkali treatment of the nylon membrane, and the membrane then was neutralized, to which, after incubation in a solution containing salmon sperm DNAs, the ^32P radio-labeled nucleotide probes were added and allowed to hybridize for 12 hours. At this stage, where aimed APP gene incorporated to the phage and one of the oligonucleotides were mutually complementary in their sequences, they would form a double-stranded DNA. The nylon membrane was then exposed to X-ray film, and plaques on the agar plates corresponding to spots of exposure were identified with phages carrying APP gene (fragment). By repeating this process, a single phage was finally obtained. The nucleotide sequence of the APP gene incorporated into the phage was determined by publicly known Sanger method.
(§2) APP gene was efficiently introduced from outside into COS cells, which is a cultured cell line of simian kidney's origin, using Lipofectamine Plus reagent (Invitrogen K.K.) according to its protocol. Briefly, 1 μg of APP gene was dissolved in 100 μl of OPTI-MEM, mixed with 6 μl of Plus reagent and left to stand for 15 minutes at room temperature. In parallel, 4 μl of Lipofectamine dissolved in 100 μl of OPTI-MEM medium was prepared. This was then mixed with the APP gene solution, and left to stand for further 15 minutes. Six-well culture plates were provided in advance in each well of which was placed 800 μl of culture that had been prepared by culturing COS cells at 75% to 80% cell density in a DMEM medium supplemented with 10% fetal bovine serum, and then replacing the medium with OPTI-MEM medium. Two hundred pI of the reaction mixture containing the gene were added to each culture well. Twelve hours after introduction of the gene, the medium was changed from the OPTI-MEM medium containing the introduced gene to a 10% fetal bovine serum-supplemented DMEM medium free of the introduced gene. To this culture, the compound obtained in Example 1 was added. After 36 to 48 hours, culture supernatant was collected, transferred to centrifuging tubes, and centrifuged at 10,000 r.p.m. at room temperature for 5 minutes. The supernatant was used as a sample containing amyloid protein. […]

[3] = Examination of solubility, visually and by microscopy; assay type: physicochemical
Text: The compound synthesized in Example 1 was examined for its solubility, visually as well as by microscopy.

[4] = system: γ-secretase; assay: Amyloid protein determination by ELISA in culture supernatant of COS cells with introduced wild-type human APP695 gene; assay type: cell-based, simian; details: for Inhibition rate (%) Aβ42(43) / Inhibition rate (%) Total Aβ: 100 µM
Text: as §1, §2

[5] = system: γ-secretase; assay: Amyloid protein determination by ELISA in culture supernatant of COS cells with introduced Sweden-type APP695 gene; assay type: cell-based, simian; details: for Inhibition rate (%) Aβ42(43) / Inhibition rate (%) Total Aβ: 100 µM
Text: as §1, §2

[6] = target: T1, γ-secretase (Homo sapiens, UniProt P49768); assay: Amyloid protein determination by ELISA in IMR32 cells with introduced human APP695 gene carrying the Sweden mutation; assay type: cell-based
T1 construct: endogenous in cells; host or cells: IMR32 cells (transfected only with the substrate APP gene)
Protocol: APP gene was efficiently introduced from outside into COS cells, which is a cultured cell line of simian kidney's origin, using Lipofectamine Plus reagent (Invitrogen K.K.) according to its protocol. Briefly, 1 μg of APP gene was dissolved in 100 μl of OPTI-MEM, mixed with 6 μl of Plus reagent and left to stand for 15 minutes at room temperature. In parallel, 4 μl of Lipofectamine dissolved in 100 μl of OPTI-MEM medium was prepared. This was then mixed with the APP gene solution, and left to stand for further 15 minutes. Six-well culture plates were provided in advance in each well of which was placed 800 μl of culture that had been prepared by culturing COS cells at 75% to 80% cell density in a DMEM medium supplemented with 10% fetal bovine serum, and then replacing the medium with OPTI-MEM medium. Two hundred pI of the reaction mixture containing the gene were added to each culture well. Twelve hours after introduction of the gene, the medium was changed from the OPTI-MEM medium containing the introduced gene to a 10% fetal bovine serum-supplemented DMEM medium free of the introduced gene. To this culture, the compound obtained in Example 1 was added. After 36 to 48 hours, culture supernatant was collected, transferred to centrifuging tubes, and centrifuged at 10,000 r.p.m. at room temperature for 5 minutes. The supernatant was used as a sample containing amyloid protein. The shorter and the longer amyloid protein components contained in each sample can be separately determined using a commercially available ELISA kit for amyloid protein determination (KHB3441: Signal Select™ Human ⊖ Amyloid1-42 ELISA Kit, or KHB3481: Signal Select™ Human β Amyloid1-40 ELISA Kit, BioSource International, Inc. CA, USA). Those ELISA kits for amyloid determination included 96-well ELISA plates coated with a primary antibody to these two types of amyloid proteins. Following eliminating non-specific antigen-antibody reactions by allowing a usual non-specific blocking reaction, a sample medium containing the amyloid protein to be measured was reacted. Then, after usual washing, one of secondary antibodies was added. The secondary antibodies consisted of two deferent antibodies that can distinguish between the two types of amyloid proteins, the one is the shorter amyloid protein and the other is the longer amyloid antibody, without no cross reactivity. The difference between the two amyloid proteins is the absence or presence of the two amino acid residues (isoleucine and alanine) at their carboxyl terminus. The antibody that detects the former is considered to recognize valine at the carboxyl terminus and the antibody that detects the latter is thought to recognize the alanine.
The compounds (1′a) and (1′b) obtained above were measured for inhibitory activity by the same method as in Example 3. As the system for evaluation, however, IMR32, a neural system cell line of human origin, was used after introducing to it a human APP695 gene into which the Sweden mutation had been incorporated.

[7] = Inhibitor 100 μM, London-type APP695, COS cells
[8] = London-type APP695, inhibitor 100 μM (Table 2)
[9] = inhibitor 100 μM (Table 2), listed as Compound
[10] = inhibitor 100 μM (Table 2), listed as inhibitor
[11] = Inhibitor 100 μM, Sweden-type APP695, COS cells
[12] = Sweden-type APP695, inhibitor 100 μM (Table 2), listed as Compound
[13] = Sweden-type APP695, inhibitor 100 μM (Table 2), listed as inhibitor

COC(=O)[C@H](CC(C)C)NC(=O)[C@H](CCSC)NC(=O)[C@@H](C[C@@H](O)[C@H](CC(C)C)NC(=O)OC(C)(C)C)C(C)C [Compound 1, Boc-Leu*-Val-Met-Leu-OMe]
Aβ40 [1]: 100 pg/mL
Aβ42(43) [1]: 62 pg/mL
Inhibition rate (%) Total Aβ [1]: 85%
Total Aβ [1]: 162 pg/mL
Inhibition rate (%) Aβ40 ([1]; listed as Inhibitor): 89%
Inhibition rate (%) Aβ42(43) ([1]; listed as Inhibitor): 51%
Inhibition rate (%) Aβ40 ([1]; listed as inhibitor): about 90%
Inhibition rate (%) Aβ42(43) ([1]; listed as inhibitor): about 50%
Aβ40 [2, 7]: 151 pg/mL
Aβ42(43) [2, 7]: 855 pg/mL
Ratio of Aβ42(43)/Aβ40 [2, 7]: 5.66
inhibitory activity on amyloid protein production ([2]; London mutation (Val717Ile), compared with wild-type sequence): nearly the same level of inhibitory activity as that noted on the wild-type sequence
Inhibition rate (%) Aβ42 [2, 8]: 98%
Inhibition rate (%) Aβ42(43) [2, 8]: 70%
Inhibition rate (%) Total Aβ ([2]; London-type APP695, inhibitor 100 μM (Table 2), listed as Compound): 89%
Inhibition rate (%) Total Aβ ([2]; London-type APP695, inhibitor 100 μM (Table 2), listed as inhibitor): more than 80%
solubility ([3]; DMEM medium containing 10% fetal bovine serum, plasma or biological fluid, concentration 10 ng/ml): > 0.01 µg/mL
solubility ([3]; DMEM medium containing 10% fetal bovine serum, plasma or biological fluid, concentration 1 μg/ml): 0.01 to 1 µg/mL (≈ 0.017 to 1.7 µM)
solubility ([3]; DMEM medium containing 10% fetal bovine serum, plasma or biological fluid, concentration 100 μg/ml): < 100 µg/mL
solubility ([3]; DMSO, organic solvent or mixture, concentration 10 ng/ml): > 0.01 µg/mL
solubility ([3]; DMSO, organic solvent or mixture, concentration 1 μg/ml): > 1 µg/mL
solubility ([3]; DMSO, organic solvent or mixture, concentration 100 μg/ml): > 100 µg/mL
solubility ([3]; phosphate buffer, pH 7, aqueous buffer, Phosphate buffer (pH 7.0), concentration 10 ng/ml): > 0.01 µg/mL
solubility ([3]; phosphate buffer, pH 7, aqueous buffer, Phosphate buffer (pH 7.0), concentration 1 μg/ml): 0.01 to 1 µg/mL (≈ 0.017 to 1.7 µM)
solubility ([3]; phosphate buffer, pH 7, aqueous buffer, Phosphate buffer (pH 7.0), concentration 100 μg/ml): < 100 µg/mL
solubility ([3]; physiological saline, saline or isotonic, concentration 10 ng/ml): > 0.01 µg/mL
solubility ([3]; physiological saline, saline or isotonic, concentration 1 μg/ml): 0.01 to 1 µg/mL (≈ 0.017 to 1.7 µM)
solubility ([3]; physiological saline, saline or isotonic, concentration 100 μg/ml): < 100 µg/mL
inhibitory activity for Aβ40 production [4]: about 98%
Aβ40 ([4]; Inhibitor 100 μM, COS cells): 218 pg/mL
Aβ42(43) ([4]; Inhibitor 100 μM, COS cells): 415 pg/mL
Ratio of Aβ42(43)/Aβ40 ([4]; Inhibitor 100 μM, COS cells): 1.90
Inhibition rate (%) Aβ42 ([4]; inhibitor 100 μM (Table 2)): 98%
Inhibition rate (%) Aβ42(43) [4, 9]: 71%
Inhibition rate (%) Total Aβ [4, 9]: 98%
Inhibition rate (%) Aβ42(43) [4, 10]: about 71%
Inhibition rate (%) Total Aβ [4, 10]: about 98%
Aβ40 [5, 11]: 1726 pg/mL
Aβ42(43) [5, 11]: 1311 pg/mL
Ratio of Aβ42(43)/Aβ40 [5, 11]: 0.76
inhibitory activity for Aβ40 ([5]; Sweden double mutation): about 90%
Inhibition rate (%) Aβ40 ([5]; Sweden-type APP695, inhibitor 100 μM (Table 2)): 90%
Inhibition rate (%) Aβ42(43) [5, 12]: 48%
Inhibition rate (%) Total Aβ [5, 12]: 84%
Inhibition rate (%) Aβ42(43) [5, 13]: about 48%
Inhibition rate (%) Total Aβ [5, 13]: more than 80%

t-But-OCO-Thr*-Leu-Val-Met-NH-Bzl [Compound 1′b]
Aβ40 ([6]; 10 μM): 72 pg/mL
Inhibition rate (%) ([6]; 10 μM): 38%
Aβ40 ([6]; 100 μM): 26 pg/mL
Inhibition rate (%) ([6]; 100 μM): 78%

CSCC[C@H](NC(=O)[C@@H](NC(=O)[C@H](CC(C)C)C[C@@H](O)[C@@H](NC(=O)OC(C)(C)C)[C@@H](C)OC(C)(C)C)C(C)C)C(=O)NCc1ccccc1 [Compound 1′a, t-But-OCO-Thr*-Leu-Val-Met-NH-Bzl]
Aβ40 ([6]; 10 μM): 31 pg/mL
Aβ40 ([6]; 100 μM): 0 pg/mL
inhibition at 10 µM ([6]; IMR-32, Aβ40, 10 μM, read-out: Inhibition rate (%)): 73%
inhibition at 100 µM ([6]; IMR-32, Aβ40, 100 μM, read-out: Inhibition rate (%)): 100%

Reference: US7585938B2, “Gamma-secretase inhibitors” (priority 2002, dated 2009)
